PubChem BioAssay AID463226 (The Scripps Research Institute Molecular Screening Center, 2010)
Calls of active or inactive are those of the source. No rule for the calls is given here.

Target: Serine/threonine-protein phosphatase PP1-beta catalytic subunit (Homo sapiens) (UniProt P62140)
Assay: PubChem AID 463226
Conditions: purified PP1, 33P-phosphohistone dephosphorylation, scintillation

Chain of Serine/threonine-protein phosphatase PP1-beta catalytic subunit (Homo sapiens) (P62140 whole entry, looked up): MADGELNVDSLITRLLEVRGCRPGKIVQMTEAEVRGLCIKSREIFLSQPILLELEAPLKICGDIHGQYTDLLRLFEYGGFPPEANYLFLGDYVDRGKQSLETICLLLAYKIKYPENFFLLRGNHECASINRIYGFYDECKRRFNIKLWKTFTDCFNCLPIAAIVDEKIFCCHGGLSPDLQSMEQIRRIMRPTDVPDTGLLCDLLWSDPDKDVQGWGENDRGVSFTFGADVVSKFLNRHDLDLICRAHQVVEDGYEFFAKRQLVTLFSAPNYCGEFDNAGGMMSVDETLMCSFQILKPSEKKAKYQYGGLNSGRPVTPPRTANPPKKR

## O=C(O)c1n[nH]nc1-c1ccccc1
  IC50: inactive

## O=C(O)C1C2CCC(O2)C1C(=O)NC1CCCCC1 (configuration not stated)
  IC50: 23.2 µM
